From US20210052633A1, “HYALURONIC ACID SYNTHESIS PROMOTER, METHOD FOR PROMOTING HYALURONIC ACID SYNTHESIS, AND CELL EVALUATION METHOD” (SEIKAGAKU CORPORATION, priority 2018, published 2021)

What was measured:
[1] = system: human synovial cells derived from three patients with osteoarthritis (HFLS-OA); assay: Hyaluronic acid synthesis by synovial cells ([3H] glucosamine incorporation, HPLC fractionation by molecular weight); type: cell-based; conditions: 48 hours, SB-807 HQ column
[2] = system: synovial cells derived from patients with osteoarthritis (HFLS-OA)
Experimental: The cells derived from three patients with each disease (3 lots) were separately evaluated and the number of cases was set to 3.
After the culture supernatant was collected, the adhered cells were detached from each well. Thereafter, the cell count was measured using a trypan blue solution and a hemacytometer.

[3] = system: model rabbit with antigen-induced arthritis; assay: Hyaluronic acid synthesis in the knee joint of a model rabbit with antigen-induced arthritis; type: in vivo, Japanese white rabbit
Source text: A 0.5% (w/v %) compound 1 solution was obtained by mixing respective solutions of a 1% (w/v) compound 1 solution (phosphate buffer solution), a 10% (w/v) ovalbumin solution (phosphate buffer solution) and [^3H] glucosamine (phosphate buffer solution, 37 MBq/mL) at a ratio of 5:1:4 (v:v:v). In the preparation of a control solution, a phosphate buffer solution was used in place of the compound 1 solution. In the preparation of a sodium hyaluronate (HA) solution, ARTZ Dispo (registered trademark) (manufactured by Seikagaku Corporation) was used in place of the compound 1 solution. Further, a Normal solution not containing ovalbumin (an arthritis-inducing substance) was obtained by mixing respective solutions of a phosphate buffer solution and [^3H] glucosamine (phosphate buffer solution, 37 MBq/mL) at a ratio of 3:2 (v:v). As test substances, the following substances were used.
Ovalbumin (SIGMA) was dissolved and prepared with physiological saline (Otsuka Pharmaceutical Factory, Inc.) at 1% (w/v), and a water-in-oil emulsion was prepared with Freund's complete adjuvant (CAPPEL) at 1:1 (v:v). The emulsion was intradermally administered at a total dose of 1 mL to dozens of sites of the back of a Japanese white rabbit (male, 16 weeks of age, Oriental Yeast Industry Co., Ltd.) under general anesthesia (midazolam, xylazine, and butorphanol at 0.67 mg/kg, 5.3 mg/kg, and 0.67 mg/kg, i.v., respectively) to sensitize the rabbit. On day 12 after sensitization, the rabbit was additionally sensitized by administering the emulsion in the same manner. […]
Since glucosamine is a constituent monosaccharide of hyaluronic acid, in hyaluronic acid newly synthesized in the living body after administration of the test substance, [^3H] glucosamine is incorporated. […] Thereafter, the radioactivity (dpm, disintegrations per minute) of each fraction was measured using a scintillation counter, and the radioactivity (the amount of [^3H] glucosamine incorporated into newly synthesized hyaluronic acid) was evaluated. […]

[4] = 0.5% (w/v), 0.5 mL/joint, 48 hours

In the case of “Aminoethanol-diclofenac-introduced sodium hyaluronate [compound 1]”, the “molecular weight peak of hyaluronic acid produced” value ([1]; Example 5, 0.01% (w/v)) is reported as ~2,400,000, the “molecular weight of hyaluronic acid produced” value ([1]; Example 5, 0.1% (w/v)) is reported as “more than 2,400,000” and the “cell count after cell culture” value [2] is reported as “no significant increase or decrease”. The “molecular weight peak of hyaluronic acid synthesized in the knee joint” value ([3]; 0.5% (w/v) solution, 0.5 mL/joint into the knee joint cavity, joint fluid at 48 hours, normal rabbit peak higher than 2,300,000) was ~2,300,000, the “amount of high molecular weight hyaluronic acid produced in the knee joint” value [3, 4] was “prominent as compared with the sodium hyaluronate administration group” and the “production amount of hyaluronic acid in the knee joint” value [3, 4] was “more prominent in the compound 1 administration group even as compared with the normal group”.
